Measurements as given in patent US8883962B2, “Zinc-responsive peptides, and methods of use thereof” (Massachusetts Institute of Technology, priority 2012, dated 2014).
“And” between values parts separate entries of the source, which are not always exact repeats. Equal entries are not always repeated. Structures can show the parent of a compound that is named as a salt. The star is where a group is joined. ZP1 = ZinPyr-1 zinc sensor: fluorescein platform with two dipicolylamine metal-binding arms, attached via its 6-CO2H; Palmitoyl = CCCCCCCCCCCCCCCC(=O)*

How the values were obtained:
[1] = 50 mM PIPES buffer (pH 7), 100 mM KCl; read-out: Kd-Zn (known); cited from earlier work
[2] = in 0.1 M H2SO4; cited from earlier work
[3] = test system: HeLa cells; assay: Live cell imaging of zinc-induced fluorescence turn-on; type: cell-based
Method: To assess the ability of Palm-ZP1 to function within a cellular environment, we conducted live cell imaging experiments. HeLa cells were incubated with a 10 μM solution of Palm-ZP1 in Dulbecco's Modified Eagle Medium (DMEM) for 30 min (37° C., 5% CO2) prior to imaging. Initial cell images had minimal ZP1 emission, consistent with the low quantum yield for the apo form of the sensor. […] Subsequent addition of 100 μM EDTA, a cell-impermeable chelator, attenuated the fluorescent signal to initial levels within 5 min, further confirming that the zinc-induced fluorescence increase occurs extracellularly.
(§1) We carried out live cell imaging experiments to determine whether ZQ-MPP could target mitochondria and report on changes in zinc concentrations. HeLa cells were pretreated with a 25 μM solution of ZQ-MPP, which also contained MitoTracker Red as an internal mitochondria tracker (see later examples). […] The localization of ZQ-MPP was investigated with multichannel fluorescence microscopy. Visually, the distribution of MitoTracker Red (FIG. 19b) and ZQ-MPP (FIG. 19c) appear nearly identical. Overlaying the images (FIG. 19d) and calculating the Pearson's correlation coefficient yields an r=0.71±0.01, indicating strong colocalization.
HeLa cells were cultured at 37° C. under a 5% CO2 humidified atmosphere in Dulbecco's Modified Eagle Medium (High Glucose DMEM, Invitrogen) supplemented with 10% fetal bovine serum (FBS, HyClone), penicillin (100 μg/mL), and streptomycin (100 μg/mL). For live cell imaging, cells were seeded in 35-mm poly-D-Lys coated glass-bottom culture dishes (MatTek Corporation).
Palm-ZP1 (10 μM) was incubated for 30 min at 37° C. and 5% CO2 in DMEM. For multichannel imaging and co-localization studies, staining of the plasma membrane was accomplished by addition of Cell Mask Orange (Life Technologies, final concentration 2.5 μg/mL) for 15-20 min. Prior to imaging, cells were rinsed with warm dye- and serum-free DMEM (2×2 mL) and bathed in warm dye- and serum-free DMEM (2 mL). To assess the zinc responsiveness of Palm-ZP1, stock solutions of ZnCl2 (10 mM) were diluted in warm dye- and serum-free DMEM to a final ZnCl2 concentration of 50 μM. The zinc-enriched media was exchanged in the cell culture dish directly on the microscope stage. […]
(§2) The imaging experiments were performed using a Zeiss Axiovert 200M inverted epifluorescence microscope equipped with an EM-CCD digital camera (Hamamatsu) and a MS200 XY Piezo Z stage (Applied Scientific Instruments). The light source was an X-Cite 120 metal-halide lamp (EXFO) and the fluorescence images were obtained using an oil-immersion objective at 63× magnification. […]

[4] = Apparent zinc-binding affinity (Kd-Zn) by fluorescence titration in buffered zinc solution; conditions: CaEDTA buffered solution, 25 mM PIPES (pH 7), 50 mM KCl, 50% acetonitrile
Method: Apparent zinc-binding affinities (Kd-Zn) were determined by a modified literature procedure. Walkup, G. K.; et al. J. Am. Chem. Soc. 2000, 122, 5644. For each zinc-binding titration, 1 mM EDTA and 2 mM CaCl2 were added to the MeCN/PIPES buffered solution. Palm-ZP1 or ZP1 was added, and the system was allowed to reach equilibrium (30 min). Aliquots of ZnCl2 were successively added, and the emission spectra recorded once the emission spectrum stabilized (˜30 min). The amount of free zinc for a given concentration of total zinc was calculated using the maxchelator program (http://maxchelator.stanford.edu/webmaxc/webmaxcS.htm) based on initial values of 1 mM EDTA, 2 mM CaCl2, an ionic strength of I=0.05 mol dm^−3, and a pH of 7.0. Due to the addition of acetonitrile to the buffered solution, we compared the apparent Kd-Zn for Palm-ZP1 to ZP1 under identical conditions (FIG. 25 and FIG. 29).
Apparent zinc-binding affinities (Kd-Zn) were determined using a modified literature procedure. Fahrni, C. J.; et al. J. Am. […] Aliquots of ZnCl2 were successively added, and the emission spectra recorded once the emission spectrum stabilized (˜30 min). The amount of free zinc for a given concentration of total zinc was calculated using the maxchelator program (http://maxchelator.stanford.edu/webmaxc/webmaxcS.htm) based on initial values of 2 mM EGTA at an ionic strength of I=0.05 mol dm^−3 and a pH of 7.0. […]

[5] = Photophysical characterization (absorbance, emission, quantum yield) without and with zinc; type: physicochemical; conditions: 25 mM PIPES (pH 7), 50 mM KCl
Method: To investigate whether the zinc-sensing properties of the ZP1 moiety withstood the conditions of SPPS, we studied the zinc-binding and photophysical properties of Palm-ZP1 in vitro. Due to the hydrophobic palmitoyl moiety, we used a mixed solvent system consisting of 25 mM PIPES buffer (pH 7) with 50 mM KCl and 50% acetonitrile (v/v). In the absence of zinc, Palm-ZP1 has spectral features that are similar to those of other ZP1 derivatives. Apo Palm-ZP1 has a λabs=518 nm and λem=534 nm (φapo=0.16±0.05) (FIG. 24 and FIG. 29). Addition of ZnCl2 to a solution of Palm-ZP1 produced a characteristic blue-shift in absorption and emission spectra (λabs=505 nm; λem=527 nm) and an enhancement of fluorescence (φZn=0.79±0.05) (FIG. 16a).
ZQ-MPP was prepared manually using standard solid phase methodology. […] In the absence of zinc, ZQ-MPP has two main absorption bands with maxima at λabs=243 and 336 nm (FIG. 26), and is essentially non-emissive (φ≦0.002). Addition of ZnCl2 gives rise to two new features in the absorption spectrum (λabs=264 and 358 nm), and a large increase (>100-fold; φ=0.36±0.01) in fluorescence intensity (λem=484 nm, FIG. 16b, 26, and Table 30).
Spectroscopic measurements for Palm-ZP1 were carried out in a mixed solvent system consisting of 25 mM PIPES buffer (pH 7) with 50 mM KCl and 50% acetonitrile (v/v) (FIG. 24). Except where noted, all fluorescence data were obtained by exciting at 495 nm and observing from 500-650 nm, with 0.1 sec integration time and slit widths of 0.4 mm (1.6 nm). Emission spectra represent the average of three scans. The quantum yield of Palm-ZP1 was referenced to fluorescein in 0.1 M NaOH(aq), which has a known quantum yield of φ=0.95. Lakowicz, J. R. Principles of fluorescence spectroscopy; 2nd ed.; Kluwer Academic/Plenum: New York, 1999.
Characterization of ZQ-MPP (FIG. 26) was performed in 25 mM PIPES buffer (pH 7) with 50 mM KCl, and 50% (v/v) acetonitrile. Zinc affinities (Kd-Zn) were compared to TSQ under identical conditions (FIG. 27 and FIG. 30). Quantum yields for ZQ-MPP and TSQ were reference to quinine sulfate in 0.1 M H2SO4, which has a known quantum yield of (I)=0.58. Eastman, J. W. Photochem. Photobio. 1967, 6, 55.

[6] = test system: HeLa cells; assay: Localization study in live cells by multichannel fluorescence microscopy (Pearson's correlation coefficient); type: cell-based
Method: We next explored whether Palm-ZP1 selective accumulates in the plasma membrane. […] Quantitative image analysis corroborated these findings: Palm-ZP1 and Cell Mask Orange strongly co-localize with a Pearson's correlation coefficient of r=0.70±0.05.
as §1
Palm-ZP1 (10 μM) was incubated for 30 min at 37° C. and 5% CO2 in DMEM. For multichannel imaging and co-localization studies, staining of the plasma membrane was accomplished by addition of Cell Mask Orange (Life Technologies, final concentration 2.5 μg/mL) for 15-20 min. Prior to imaging, cells were rinsed with warm dye- and serum-free DMEM (2×2 mL) and bathed in warm dye- and serum-free DMEM (2 mL). […]
as §2
To calculate r, images were first deconvoluted using a calculated point-spread function (PSF) map based on emission wavelength, refractive index of the media (n=1.518), and the numerical aperture (1.4). Deconvoluted channels (i.e., sensor and organelle trackers) were merged and analyzed. For each image, a minimum of three regions-of-interest (ROI) were selected and the r-value calculated using an ImageJ plugin. […]

O=C1OC2(c3ccccc31)c1cc(Cl)c(O)c(CN(Cc3ccccn3)Cc3ccccn3)c1Oc1c2cc(Cl)c(O)c1CN(Cc1ccccn1)Cc1ccccn1 [ZP1]
Kd [1]: 0.7 nM

C=C[C@H]1C[N@@]2CC[C@H]1C[C@H]2[C@H](O)c1ccnc2ccc(OC)cc12 [quinine sulfate]
known quantum yield (reference standard) [2]: 0.58

Palmitic acid-PPPDDK(ZPI)-CONH2 (Palmitoyl-PPPDDK(ZP1)-NH2; not fully specified) [Palm-ZP1]
increase in ZP1 fluorescence intensity at the peripheral membrane ([3]; 10 μM probe, addition of 50 μM ZnCl2, no ionophore): ~1.7 fold
time for fluorescent signal to be attenuated to initial levels ([3]; addition of 100 μM EDTA): ≤ 5 min
Kd-Zn compared with ZP1 [4]: closely approximates the Kd-Zn of ZP1
quantum yield φ, absence of zinc (apo) ([5]; 50% acetonitrile (v/v)): 0.16±0.05
quantum yield φ, zinc-bound ([5]; 50% acetonitrile (v/v)): 0.79±0.05
λabs after addition of ZnCl2 ([5]; 50% acetonitrile (v/v)): 505 nm
λabs, absence of zinc (apo) ([5]; 50% acetonitrile (v/v)): 518 nm
λem after addition of ZnCl2 ([5]; 50% acetonitrile (v/v)): 527 nm
λem, absence of zinc (apo) ([5]; 50% acetonitrile (v/v)): 534 nm
Pearson's correlation coefficient r with Cell Mask Orange (plasma membrane) [6]: 0.70±0.05
localization in cells ([6]; multichannel fluorescence microscopy): preferentially localize to the plasma membrane

zinquin-FxrFxrFxr-CONH2 [ZQ-MPP]
increase in ZQ-MPP intensity ([3]; 25 μM probe, addition of 50 μM zinc/pyrithione): ~15 fold
signal after addition of zinc chelator ([3]; addition of 100 μM TPEN): returned to near baseline levels
quantum yield φ, absence of zinc (apo) ([5]; 50% acetonitrile (v/v)): ≤ 0.002
quantum yield φ, zinc-bound ([5]; 50% acetonitrile (v/v)): 0.36±0.01
λabs after addition of ZnCl2 ([5]; 50% acetonitrile (v/v)): 264 nm and 358 nm
λabs, absence of zinc (apo) ([5]; 50% acetonitrile (v/v)): 243 nm and 336 nm
λem after addition of ZnCl2 ([5]; 50% acetonitrile (v/v)): 484 nm
increase in fluorescence intensity upon addition of ZnCl2 ([5]; in vitro, 50% acetonitrile): > 100 fold
Pearson's correlation coefficient r with MitoTracker Red (mitochondria) [6]: 0.71±0.01
